ChEMBL document CHEMBL4831497, “Monoacylglycerol lipase (MAGL) inhibitors based on a diphenylsulfide-benzoylpiperidine scaffold” (Eur J Med Chem, 2021)
pIC50, pKi: −log10 of the molar value. Calls of active or inactive are those of the source. The calls are words filed in the database; no cut-off is given here.

Assays:
SK-OV-3 = experiment: Antiproliferative activity against human SK-OV-3 cells assessed as inhibition of cell viability for 96 hrs by cell titre glo luminescence assay; format: functional, cell-based; settings: SK-OV-3, 96 h
MDA-MB-231 = experiment: Antiproliferative activity against human MDA-MB-231 cells assessed as inhibition of cell viability for 96 hrs by cell titre glo luminescence assay; format: functional, cell-based; settings: MDA-MB-231, 96 h
COLO 201 = experiment: Antiproliferative activity against human COLO201 cells assessed as inhibition of cell viability for 96 hrs by cell titre glo luminescence assay; format: functional, cell-based; settings: COLO 201, 96 h
OVCAR-5 = experiment: Antiproliferative activity against human OVCAR-5 cells assessed as inhibition of cell viability for 96 hrs by cell titre glo luminescence assay; format: functional, cell-based; settings: OVCAR-5, 96 h
KURAMOCHI = experiment: Antiproliferative activity against human KURAMOCHI cells assessed as inhibition of cell viability for 96 hrs by cell titre glo luminescence assay; format: functional, cell-based
HT-29 = experiment: Antiproliferative activity against human HT-29 cells assessed as inhibition of cell viability for 96 hrs by cell titre glo luminescence assay; format: functional, cell-based; settings: HT-29, 96 h
OVCAR-3 = experiment: Antiproliferative activity against human OVCAR-3 cells assessed as inhibition of cell viability for 96 hrs by cell titre glo luminescence assay; format: functional, cell-based; settings: OVCAR-3, 96 h
COLO 205 = experiment: Antiproliferative activity against human COLO205 cells assessed as inhibition of cell viability for 96 hrs by cell titre glo luminescence assay; format: functional, cell-based; settings: COLO 205, 96 h
HCT-116 = experiment: Antiproliferative activity against human HCT-116 cells assessed as inhibition of cell viability for 96 hrs by cell titre glo luminescence assay; format: functional, cell-based; settings: HCT-116, 96 h
Monoglyceride lipase [1] = target: T1, Monoglyceride lipase (Homo sapiens, UniProt Q99685)
T1 sequence (Q99685 whole entry): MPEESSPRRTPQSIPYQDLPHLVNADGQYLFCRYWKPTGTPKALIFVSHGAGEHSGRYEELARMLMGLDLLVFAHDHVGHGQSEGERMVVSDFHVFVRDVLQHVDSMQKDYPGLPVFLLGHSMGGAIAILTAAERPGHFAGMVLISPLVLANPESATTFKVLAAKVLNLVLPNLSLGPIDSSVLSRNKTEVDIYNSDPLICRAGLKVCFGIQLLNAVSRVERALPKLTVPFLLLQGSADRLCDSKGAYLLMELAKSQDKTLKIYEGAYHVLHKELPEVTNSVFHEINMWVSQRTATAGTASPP
Description: Inhibition of human recombinant MAGL assessed as dissociation constant using 4-NPA as substrate

[2] = target: T2, Monoglyceride lipase (Homo sapiens) (UniProt Q99685); settings: dose 8.0 nM, time 60.0 min
T2 sequence (whole entry): T1 sequence (Q99685 whole entry)

[3] = target: T2, Monoglyceride lipase (Homo sapiens); settings: dose 320.0 nM, time 60.0 min
Monoglyceride lipase [4] = target: T1, Monoglyceride lipase; remark: listed apart in the source
Description: Inhibition of human recombinant MAGL using 4-NPA as substrate by microplate reader method

| pIC50 (SK-OV-3) | pIC50 (MDA-MB-231) | pIC50 (COLO 201) | pIC50 (OVCAR-5) | pIC50 (HT-29) | pIC50 (OVCAR-3) | pIC50 (COLO 205) | pIC50 (HCT-116) | pKi (Monoglyceride lipase [1]) | inhibition [2] | inhibition [3] | pIC50 (Monoglyceride lipase [4]) | Structure (SMILES) | pIC50 (KURAMOCHI) |
| --- | --- | --- | --- | --- | --- | --- | --- | --- | --- | --- | --- | --- | --- |
| 4.08 | 4.15 | 4.08 | 5.00 | 5.16 | 4.03 | 4.10 | 4.07 | – | – | – | – | O=C(c1ccc(Cl)cc1)C1CCN(C(=O)c2cccc(O)c2)CC1 | 4.12 |
| 5.36 | 5.00 | 5.48 | 6.11 | 5.60 | 5.07 | 5.66 | 5.47 | 8.95 | Active | Active | 8.73 | O=C(c1ccc(Sc2cccc(OC(F)(F)F)c2)cc1)C1CCN(C(=O)c2cc(O)ccc2F)CC1 | 5.43 |
| 5.36 | 5.27 | 5.54 | 6.49 | 5.08 | 5.24 | 5.48 | 5.48 | – | – | – | – | O=C(c1ccc(Sc2cccc(C(F)(F)F)c2)cc1)C1CCN(C(=O)c2cc(O)ccc2F)CC1 | 5.48 |
| 5.06 | 5.57 | 5.06 | 5.43 | 5.05 | 4.92 | 5.06 | 5.12 | 8.94 | Active | Active | 8.82 | O=C(c1ccc(Sc2cccc(Cl)c2)cc1)C1CCN(C(=O)c2cc(O)ccc2F)CC1 | 5.15 |
